# Reference: patent publication US10246489B2, “Peptide inhibitors of calcium oxalate monohydrate crystallization and uses thereof” (UNIVERSITY OF HOUSTON, priority 2013, dated 2019)
# Entries after “also recorded” stand apart in the source; their conditions may differ.
# Key:
# [1] = In situ calcium ion-selective electrode (ISE) measurement of COM crystallization; conditions: 20 μg/ml additive; supersaturated calcium oxalate S=5.4, stirred; ISE slope in first 40 min vs control
# Procedure: The COM growth rate was measured as the slope (dCa/dt) of decreasing Ca^2+ concentration within the first 40 min of crystallization. […] The percent reduction in COM growth rate was calculated by comparing the ISE slopes of peptides and control using the formula, Percent Reduction=[1−(dCa/dt)peptide/(dCa/dt)control]×100%. Data are averages of 2 or 3 measurements (error bars equal two standard deviations);
# COM crystals for bulk crystallization studies were synthesized using a reported procedure that produces micron-sized crystals with large basal (100) surfaces. COM crystals prepared with molar composition 0.7 mM CaCl2: 0.7 mM Na2C2O4: 150 mM NaCl are referred to as the control. Growth solutions prepared with peptides used 20 μg/ml of the additive (unless otherwise stated).
# As such, measurements reported herein were conducted at a single peptide concentration (20 μg/ml) to assess COM growth inhibition. To facilitate comparison of peptides in Table 1, Applicants calculated the percent reduction in COM growth rate using the relative difference in ISE slopes (units of ppm Ca^2+ per time) for peptide and control samples during the first 40 min of crystallization.
# The slope of ISE curves (FIG. 2A) is the temporal change in free Ca^2+ concentration due to COM nucleation (primary and secondary) and crystal growth. Deconvoluting these two processes (nucleation and growth) from ISE data is nontrivial, particularly if one wishes to extract detailed kinetic information of COM growth rates. […] In the current study, the distinct advantage of ISE compared to more traditional approaches is its ease of use and the rapid time for data acquisition that enables high-throughput analysis of large peptide libraries.
# A quantitative comparison of peptide efficacy for inhibiting COM crystallization was performed using in situ ISE measurements. The percent inhibition in COM growth rate was calculated using the relative difference in ISE slopes in the presence of 20 μg/mL peptide. […] The effect of Asp with Glu in peptide sequences was measured on COM growth inhibition (Table 2).
# [2] = Wang et al. [11]; similar citrate concentration, lower supersaturation S=1.3; cited from earlier work
# [3] = Kinetic studies of COM growth at 60° C. using the calcium assay over 24 hours; conditions: 20 μg/mL peptide, 24-hour period
# Procedure: A second library of peptides containing glutamic acid (E) and alanine (A) amino acids was synthesized. The sequences of E-peptides shown in Table 2 were used in bulk crystallization studies and kinetic studies to assess their role as growth inhibitors or promoters of COM crystallization. […] These analyses were performed using the calcium assay to track the kinetics of crystallization over a 24-hour period. The calcium ion concentration in the supernatant solution was assessed at periodic times.
# (§1) Free calcium concentration in the crystallization solution was measured by a colorimetric assay using Quantichrome DICA 500 Calcium assay kit (BioAssay Systems, Hayward, Calif.). Standard solutions (0, 0.1, 0.2, 0.3, 0.4, 0.5, and 1 mM) were prepared using calcium solutions provided with the kit. Detection reagent was prepared by mixing equal volumes of reagent A and reagent B according to manufacturer's instructions. A 10 μL sample was withdrawn from the top of each crystallization well without disturbing the bottom and dispensed into a 96-well microplate. 100 μL of detection reagent was added to each well and incubated for 3 minutes at room temperature. The absorbance was measured at 612 nm using Biotek Synergy H4 microplate reader (BioTek, Winooski, Vt.). Calcium concentration was determined using a calibration curve prepared from standard calcium solutions.
# [4] = Bulk crystallization studies of COM crystal size and habit (optical microscopy, SEM, AFM)
# Procedure: FIGS. 4A-4B show macroscopic characterization of COM crystals from bulk crystallization in solutions of 0.5 mM CaC2O4 and 20 μg/ml peptide. Optical microscopy was used to measure: Percent distribution of elongated hexagonal platelet (shaded bars) and diamond platelet (pattern bars) crystal morphologies (FIG. 4A); and length of the COM (100) basal surface measured along the direction (i.e. apical tip-to-tip distance) for hexagonal and diamond morphologies (FIG. 4B). Data in (FIG. 4A) and (FIG. 4B) are the average of three separate crystallization experiments performed at 60° C. for 3 days (error bars equal one standard deviation). Data for peptide D4 (diamond habit) was omitted based on too few crystals for statistical analysis;
# COM crystals for bulk crystallization studies were synthesized using a reported procedure that produces micron-sized crystals with large basal (100) surfaces. COM crystals prepared with molar composition 0.7 mM CaCl2: 0.7 mM Na2C2O4: 150 mM NaCl are referred to as the control. Growth solutions prepared with peptides used 20 μg/ml of the additive (unless otherwise stated). The crystals were characterized by optical microscopy using a Leica DM2500-M microscope, scanning electron microscope (SEM) using a FEI 235 Dual-Beam Focused Ion-beam instrument, atomic force microscopy (AFM) using an Asylum MFP-3D-SA instrument (Santa Barbara, Calif.), and a calcium ion-selective electrode (ISE, ThermoScientific).
# ISE measurements can be used to screen peptide efficacy, but provide little information regarding the specificity of peptide binding to different surfaces of COM crystals. To this end, Applicants used a second analysis step to identify the effect of peptides on COM crystal size and habit. The influence of the peptide library on macroscopic properties of COM crystals was assessed using bulk crystallization studies and optical and scanning electron microscopy to characterize COM crystals grown in the presence of peptides. In vitro, COM crystallization yields elongated hexagonal platelets with {100} basal surfaces bounded by {010} and crystallographically equivalent {121} apical surfaces (FIG. 3A). […] Applicants observed that multiple peptides in the library reduced growth along the directions, which decreased the crystal aspect ratio (length-to-width) and shifted the morphology from hexagonal to diamond platelets. This change in crystal habit can be attributed to the preferential binding of peptides to COM {121} surfaces, which slows growth along the naturally fast growth directions within the (100) plane.
# To more systematically assess the surface topography of COM crystals, Applicants used atomic force microscopy (AFM) to probe the effect of peptides on COM (100) surface roughness. Crystals extracted from control and peptide D5 batches were prepared on AFM sample disks and imaged in air. The RMS roughness for (100) surfaces of hexagonal-shaped crystals from the control and test peptide D5 were approximately 1.0 and 4.3 nm, respectively.
# Crystal batches prepared in bulk studies were analyzed using optical microscopy to quantify changes in COM crystal size and aspect ratio. […] Although there were clear differences in the percent population of diamond-shaped crystals among peptides tested in this study, Applicants observed that the size of diamond crystals were generally the same, irrespective of peptide sequence (FIG. 4B). The majority of COM hexagonal platelets in peptide samples had similar size and aspect ratio as the control (here Applicants only report the length of COM crystals in FIG. 4B). A notable exception, however, was peptide D4, which produced a 22% increase in the length-to-width aspect ratio of COM hexagonal crystals, and an increase in the length from 35 μm (control) to 75 μm (peptide D4).
# [5] = High-throughput colorimetric calcium depletion assay (crystallization half-time); conditions: 37° C., crystallization volume 600 μL, shaking; logistic fit
# Procedure: as §1
# Time course of depletion of free calcium in the crystallization solution, normalized to the initial concentration, was fitted to a nonlinear logistic function using OriginPro Software (Origin Lab, Northhampton, Mass.). The logistic function relating calcium concentration to time is given by
# where [Ca]t is the normalized calcium concentration at time t, A1 is the normalized initial supersaturation concentration (i.e at t=0), A2 is the normalized equilibrium concentration (i.e. at t=∞), p is the hill coefficient which represents slope of the curve at midpoint, and t1/2 is the crystallization half-time (CHT), defined as the time at which crystallization is 50% complete (i.e. [Ca]t1/2=[…]). A1 was fixed at 1, and A2, p and t1/2 were obtained from fitting the data to equation 1. CHT was used as a measure of inhibition potentials of the peptides. A one-way ANOVA in combination with Tukey post hoc test at p<0.05 level was used to probe statistical significance. Applicants' studied the effects of experimental parameters including volume, shaking and temperature on crystallization in designing a high-throughput screening assay. Applicants have shown the logistic model effectively represents the three phases: induction, crystal growth and equilibrium observed in our setup, and CHT (t1/2) can be used as a measure of efficacy of potential crystal growth modifiers. The peptide library screened comprised of Asp and Ala residues (peptides D1-D13) at optimized assay conditions of 37° C., crystallization volume of 600 μL in a shaking environment. […] The high throughput of the assay provides the opportunity to assess the growth modulation potential of crystal growth modifiers at varying modifier concentrations, supersaturations and ionic strengths with relative ease. […] Finally, the assay can be translated to other crystallization systems in a relatively straightforward fashion for rational design and discovery of growth modifiers for specific applications.
molecule,measurement,setting,value
"O=C(O)CC(O)(CC(=O)O)C(=O)O [citrate, reference compound]",percent reduction in COM growth rate,[1],28±6%
same,reduction in COM growth rate,[2],48%
A-E-A-E-A-E-A-E-A-E-A-E-A-E-A-E-A-E (AEAEAEAEAEAEAEAEAE; Synthesized Calcium oxalate monohydrate inhibitory polypeptide) [E10],inhibition of COM crystal growth (calcium in supernatant over time),[3],inhibition of COM crystal growth; also recorded: more effective inhibitor than E11
ADAADDAADAADDAAAAA (Synthesized Calcium oxalate monohydrate inhibitory polypeptide) [D5],percent reduction in COM growth rate,[1],30%
same,percentage of diamond-shaped crystals in total crystal population,"[4]; 20 μg/ml peptide, 60° C. for 3 days, optical microscopy, average of three experiments",largest populations of diamond-shaped crystals
same,RMS roughness of diamond-shaped crystals,[4]; AFM imaged in air,3.2 nm
same,RMS roughness of (100) surfaces of hexagonal-shaped crystals,"[4]; AFM imaged in air, control approximately 1.0 nm",~4.3 nm
same,"CHT (hr), crystallization half-time",[5],4.641 h
E-E-E-E-E-E-E-E-E-E-E-E-E-E-E-E-E-E (EEEEEEEEEEEEEEEEEE; Synthesized Calcium oxalate monohydrate inhibitory polypeptide) [E11],inhibition of COM crystal growth (calcium in supernatant over time),[3],inhibition of COM crystal growth
